Values of other authors, collected in patent publication US10933035B2, “Antimicrobial silicone-based wound dressings” (Covalon Technologies Inc., priority 2010, dated 2021).

Conditions: 20° C.

Solubility in water: 0.008 % wt/vol
Structure (SMILES): [H]/N=C(\N/C(=N/[H])NCCCCCCNC(=N)NC(=N)Nc1ccc(Cl)cc1)Nc1ccc(Cl)cc1 [Chlorhexidine]
